How the values were obtained:
Assay type in all cases: functional
[1] = Antioxidant activity assessed as inhibition of CuSO4-induced human LDL oxidation at 25 uM at 6 hr by thibarbuteric acid assay
[2] = Antioxidant activity assessed as inhibition of CuSO4-induced human LDL oxidation at 10 uM at 6 hr by thibarbuteric acid assay
[3] = Antioxidant activity assessed as inhibition of CuSO4-induced human LDL oxidation at 25 uM at 4 hr by thibarbuteric acid assay
[4] = Antioxidant activity assessed as inhibition of CuSO4-induced human LDL oxidation at 10 uM at 4 hr by thibarbuteric acid assay
[5] = Antioxidant activity assessed as inhibition of CuSO4-induced human LDL oxidation at 25 uM at 2 hr by thibarbuteric acid assay
[6] = Antioxidant activity assessed as inhibition of CuSO4-induced human LDL oxidation at 10 uM at 2 hr by thibarbuteric acid assay
[7] = Antioxidant activity assessed as inhibition of linoleic acid oxidation at 25 uM up to 180 min by beta-carotene bleaching assay
[8] = Antioxidant activity assessed as inhibition of linoleic acid oxidation at 10 uM up to 180 min by beta-carotene bleaching assay

Row | SMILES | inhibition [1] [%] | inhibition [2] [%] | inhibition [3] [%] | inhibition [4] [%] | inhibition [5] [%] | inhibition [6] [%] | inhibition [7] [%] | inhibition [8] [%]
1 | C[C@@H](O)[C@H](NCCC(=O)N1c2ccccc2C=Cc2ccccc21)C(=O)O | 61.6 | 57 | 59.6 | 55.5 | 56.2 | 53.5 | 76 | 53.8
2 | O=C(O)[C@H](Cc1ccccc1)NCCC(=O)N1c2ccccc2C=Cc2ccccc21 | 18.7 | 13.5 | 16.4 | 11.2 | 13.1 | 9.98 | 8.3 | 5.39
3 | O=C(O)CNCCC(=O)N1c2ccccc2C=Cc2ccccc21 | 10.3 | 10.2 | 7.92 | 7.95 | 8.24 | 6.71 | 8.8 | 2.96
4 | O=C(O)[C@@H]1CCCN1CCC(=O)N1c2ccccc2C=Cc2ccccc21 | 17.4 | 15.4 | 14.1 | 13.6 | 13.7 | 11.9 | 6.15 | 4.22
5 | CSCC[C@H](NCCC(=O)N1c2ccccc2C=Cc2ccccc21)C(=O)O | 61.6 | 59.7 | 59.8 | 57.9 | 55 | 54.6 | 67.3 | 52.6
6 | O=C(CCCl)N1c2ccccc2C=Cc2ccccc21 | 12.4 | 8.87 | 9.77 | 6.87 | 7.43 | 5.34 | 4.24 | 2.89
7 | O=C(O)[C@H](Cc1ccc(O)cc1)NCCC(=O)N1c2ccccc2C=Cc2ccccc21 | 83.5 | 78.7 | 79.6 | 75.5 | 73.6 | 70.5 | 89.1 | 86.8
8 | O=C(O)[C@H](Cc1c[nH]cn1)NCCC(=O)N1c2ccccc2C=Cc2ccccc21 | 72.7 | 68.5 | 70.1 | 65.7 | 68.3 | 56.3 | 86.8 | 85
9 | O=C1O[C@H]([C@@H](O)CO)C(O)=C1O | 92.2 | 84.4 | 85.2 | 81.3 | 79.2 | 74.3 | 90.4 | 87.2
10 | O=C(O)[C@H](Cc1c[nH]c2ccccc12)NCCC(=O)N1c2ccccc2C=Cc2ccccc21 | 75.2 | 73.5 | 73.2 | 70.8 | 71.2 | 67.9 | 85.9 | 83.6
11 | C[C@H](NCCC(=O)N1c2ccccc2C=Cc2ccccc21)C(=O)O | 12.1 | 11 | 10.1 | 9.75 | 9.14 | 8.92 | 15.4 | 10
12 | O=C(O)[C@H](CS)NCCC(=O)N1c2ccccc2C=Cc2ccccc21 | 75.8 | 72.5 | 73.4 | 69.8 | 70.5 | 67.3 | 84.4 | 82.2
13 | O=C(O)[C@@H]1C(O)CCN1CCC(=O)N1c2ccccc2C=Cc2ccccc21 (some centres undefined) | 77.1 | 75.8 | 75.5 | 73.5 | 73.7 | 69.7 | 88.4 | 85.4

From ChEMBL document CHEMBL3045243, “Synthesis of novel 3-chloro-1-(5H-dibenz[b,f]azepine-5yl)propan-1-one derivatives with antioxidant activity” (Med Chem Res, 2011)
